In PubChem BioAssay (NCI):
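Cultured in 96-well plates, cells were exposed to test compound for 48 hours across five concentrations. TGI marks complete inhibition of growth.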

Legend:
Test in all cases: DTP human tumour cell line panel, 48 h
U251 CNS = system: U251 CNS
786-0 renal = system: 786-0 renal
HCT-116 colon = system: HCT-116 colon
NCI-H522 lung = system: NCI-H522 lung
NCI/ADR-RES ovarian = system: NCI/ADR-RES ovarian
IGROV1 ovarian = system: IGROV1 ovarian
HOP-92 NSCLC = system: HOP-92 NSCLC
HT29 colon = system: HT29 colon
KM12 colon = system: KM12 colon
SF-268 CNS = system: SF-268 CNS
MALME-3M melanoma = system: MALME-3M melanoma
TK-10 renal = system: TK-10 renal
UO-31 renal = system: UO-31 renal
MDA-MB-231 breast = system: MDA-MB-231 breast
ACHN renal = system: ACHN renal
SR leukemia = system: SR leukemia
K-562 leukemia = system: K-562 leukemia
MDA-N = system: MDA-N
SK-MEL-2 melanoma = system: SK-MEL-2 melanoma
COLO 205 colon = system: COLO 205 colon
SK-OV-3 ovarian = system: SK-OV-3 ovarian
MOLT-4 leukemia = system: MOLT-4 leukemia
UACC-62 melanoma = system: UACC-62 melanoma
SN12C renal = system: SN12C renal
SK-MEL-28 melanoma = system: SK-MEL-28 melanoma
M14 melanoma = system: M14 melanoma
SF-295 CNS = system: SF-295 CNS
UACC-257 melanoma = system: UACC-257 melanoma
NCI-H23 lung = system: NCI-H23 lung
BT-549 breast = system: BT-549 breast
OVCAR-3 ovarian = system: OVCAR-3 ovarian
HL-60(TB) leukemia = system: HL-60(TB) leukemia
HOP-62 NSCLC = system: HOP-62 NSCLC
HCT-15 colon = system: HCT-15 colon
HS 578T breast = system: HS 578T breast
DU-145 prostate = system: DU-145 prostate
EKVX NSCLC = system: EKVX NSCLC
OVCAR-8 ovarian = system: OVCAR-8 ovarian
LOX IMVI melanoma = system: LOX IMVI melanoma
RXF 393 renal = system: RXF 393 renal
RPMI-8226 leukemia = system: RPMI-8226 leukemia
SW-620 colon = system: SW-620 colon
MDA-MB-435 = system: MDA-MB-435
CAKI-1 renal = system: CAKI-1 renal
OVCAR-4 ovarian = system: OVCAR-4 ovarian
PC-3 prostate = system: PC-3 prostate
OVCAR-5 ovarian = system: OVCAR-5 ovarian
SK-MEL-5 melanoma = system: SK-MEL-5 melanoma
SNB-75 CNS = system: SNB-75 CNS
A549 NSCLC = system: A549 NSCLC
CCRF-CEM leukemia = system: CCRF-CEM leukemia
A498 renal = system: A498 renal
NCI-H226 lung = system: NCI-H226 lung
T-47D breast = system: T-47D breast
SNB-19 CNS = system: SNB-19 CNS
NCI-H460 lung = system: NCI-H460 lung
HCC-2998 colon = system: HCC-2998 colon

O=c1c(/C=C/c2c(O)ccc3ccccc23)nnc2sc(-c3cccc([N+](=O)[O-])c3)nn12
TGI (U251 CNS): > 100 µM | TGI (786-0 renal): > 100 µM | TGI (HCT-116 colon): 32.2 µM | TGI (NCI-H522 lung): 28.1 µM | TGI (NCI/ADR-RES ovarian): 67.8 µM | TGI (IGROV1 ovarian): > 100 µM | TGI (HOP-92 NSCLC): > 100 µM | TGI (HT29 colon): > 100 µM | TGI (KM12 colon): > 100 µM | TGI (SF-268 CNS): 89.8 µM | TGI (MALME-3M melanoma): 47.3 µM | TGI (TK-10 renal): 89.3 µM | TGI (UO-31 renal): > 100 µM | TGI (MDA-MB-231 breast): 58 µM | TGI (ACHN renal): > 100 µM | TGI (SR leukemia): > 100 µM | TGI (K-562 leukemia): > 100 µM | TGI (MDA-N): > 100 µM | TGI (SK-MEL-2 melanoma): 70.1 µM | TGI (COLO 205 colon): > 100 µM | TGI (SK-OV-3 ovarian): > 100 µM | TGI (MOLT-4 leukemia): 28.4 µM | TGI (UACC-62 melanoma): 43.9 µM | TGI (SN12C renal): > 100 µM | TGI (SK-MEL-28 melanoma): > 100 µM | TGI (M14 melanoma): 68.4 µM | TGI (SF-295 CNS): 82.6 µM | TGI (UACC-257 melanoma): 51 µM | TGI (NCI-H23 lung): > 100 µM | TGI (BT-549 breast): > 100 µM | TGI (OVCAR-3 ovarian): 7.23 µM | TGI (HL-60(TB) leukemia): 13.5 µM | TGI (HOP-62 NSCLC): > 100 µM | TGI (HCT-15 colon): > 100 µM | TGI (HS 578T breast): 56.1 µM | TGI (DU-145 prostate): > 100 µM | TGI (EKVX NSCLC): 79.4 µM | TGI (OVCAR-8 ovarian): > 100 µM | TGI (LOX IMVI melanoma): > 100 µM | TGI (RXF 393 renal): > 100 µM | TGI (RPMI-8226 leukemia): > 100 µM | TGI (SW-620 colon): > 100 µM | TGI (MDA-MB-435): > 100 µM | TGI (CAKI-1 renal): > 100 µM | TGI (OVCAR-4 ovarian): 51.6 µM | TGI (PC-3 prostate): 46.5 µM | TGI (OVCAR-5 ovarian): > 100 µM

CC(C)(C)OC(=O)NC1CCCC1C(O)(C1=CCCC1)C1=CCCC1 (stereo unspecified)
TGI (U251 CNS): > 100 µM | TGI (786-0 renal): > 100 µM | TGI (HCT-116 colon): > 100 µM | TGI (NCI/ADR-RES ovarian): > 100 µM | TGI (IGROV1 ovarian): > 100 µM | TGI (SK-MEL-5 melanoma): > 100 µM | TGI (HOP-92 NSCLC): > 100 µM | TGI (SNB-75 CNS): > 100 µM | TGI (HT29 colon): > 100 µM | TGI (KM12 colon): > 100 µM | TGI (SF-268 CNS): > 100 µM | TGI (A549 NSCLC): > 100 µM | TGI (CCRF-CEM leukemia): > 100 µM | TGI (A498 renal): > 100 µM | TGI (MDA-MB-231 breast): > 100 µM | TGI (ACHN renal): > 100 µM | TGI (SR leukemia): > 100 µM | TGI (MDA-N): > 100 µM | TGI (SK-MEL-2 melanoma): > 100 µM | TGI (COLO 205 colon): > 100 µM | TGI (NCI-H226 lung): > 100 µM | TGI (T-47D breast): > 100 µM | TGI (SNB-19 CNS): > 100 µM | TGI (SK-OV-3 ovarian): > 100 µM | TGI (MOLT-4 leukemia): > 100 µM | TGI (UACC-62 melanoma): > 100 µM | TGI (SN12C renal): > 100 µM | TGI (SK-MEL-28 melanoma): > 100 µM | TGI (M14 melanoma): > 100 µM | TGI (UACC-257 melanoma): > 100 µM | TGI (NCI-H23 lung): > 100 µM | TGI (BT-549 breast): > 100 µM | TGI (OVCAR-3 ovarian): > 100 µM | TGI (HL-60(TB) leukemia): > 100 µM | TGI (HOP-62 NSCLC): > 100 µM | TGI (HCT-15 colon): > 100 µM | TGI (HS 578T breast): > 100 µM | TGI (NCI-H460 lung): > 100 µM | TGI (DU-145 prostate): > 100 µM | TGI (OVCAR-8 ovarian): > 100 µM | TGI (LOX IMVI melanoma): > 100 µM | TGI (RXF 393 renal): > 100 µM | TGI (RPMI-8226 leukemia): > 100 µM | TGI (HCC-2998 colon): > 100 µM | TGI (SW-620 colon): > 100 µM | TGI (MDA-MB-435): > 100 µM | TGI (OVCAR-4 ovarian): > 100 µM | TGI (PC-3 prostate): > 100 µM | TGI (OVCAR-5 ovarian): > 100 µM
